Measurements taken from patent US20140017893A1, “CMP POLISHING LIQUID AND METHOD FOR POLISHING SUBSTRATE USING THE SAME” (Hitachi Chemical Company, Ltd., priority 2007, published 2014).
Converted amounts (≈) assume the structure as drawn.

Test: Solubility of guanidine compounds in water, OECD Guideline 105 flask method
Type: physicochemical

Solubility in water [mM] | solubility (water, thermodynamic from solid) [mM] | SMILES
15 (≈ 2870 µg/mL) |  | Cc1ccccc1NC(=N)NC(=N)N [o-Tolylbiguanide]
 | 50 (≈ 3700 µg/mL) | N=C(N)NN [aminoguanidine]
